Results as given in ChEMBL document CHEMBL1201862, “PubChem BioAssay data set” (2004).
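Interpolation was linear, between the two tested concentrations surrounding the appropriate level; five concentrations were tested over 48 hours in 96-well plates. Abbreviation: GI50, concentration required for 50% inhibition of growth.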 The source made the active and inactive calls. Cut-off read from the data, not from the text of the source: active = GI50 up to about 1.1 µM and inactive = higher.

Tests used:
Assay in all cases: NCI-60 cell line screen, 48 h
Hs-578T = tested on: Hs-578T
OVCAR-5 = tested on: OVCAR-5
OVCAR-4 = tested on: OVCAR-4
786-0 = tested on: 786-0
T47D = tested on: T47D
RXF 393 = tested on: RXF 393
CCRF-CEM = tested on: CCRF-CEM
MDA-MB-435 = tested on: MDA-MB-435
OVCAR-8 = tested on: OVCAR-8
HCC 2998 = tested on: HCC 2998
COLO 205 = tested on: COLO 205
MDA-N = tested on: MDA-N
MCF7 = tested on: MCF7
PC-3 = tested on: PC-3
CAKI-1 = tested on: CAKI-1
EKVX = tested on: EKVX
MDA-MB-231 = tested on: MDA-MB-231
SNB-19 = tested on: SNB-19
HL-60 = tested on: HL-60

Measured: GI50

c1ccc2c(c1)C(=Nc1ccc(N=C3c4ccccc4-c4ccccc43)cc1)c1ccccc1-2
inactive: Hs-578T > 100 µM | OVCAR-5 > 100 µM | OVCAR-4 > 100 µM | 786-0 > 100 µM | T47D > 100 µM | RXF 393 > 100 µM | CCRF-CEM > 100 µM | MDA-MB-435 > 100 µM | OVCAR-8 > 100 µM | HCC 2998 > 100 µM | COLO 205 > 100 µM | MDA-N > 100 µM | MCF7 > 100 µM | PC-3 > 100 µM | CAKI-1 > 100 µM | EKVX > 100 µM | MDA-MB-231 > 100 µM | SNB-19 > 100 µM | HL-60 54.1 µM

O=C1CSC2=NCC3(NN12)c1ccccc1-c1ccccc13
inactive: Hs-578T > 10 µM | OVCAR-4 > 10 µM | 786-0 > 10 µM | T47D > 10 µM | RXF 393 > 10 µM | CCRF-CEM > 10 µM | MDA-MB-435 > 10 µM | OVCAR-8 > 10 µM | HCC 2998 > 10 µM | COLO 205 > 10 µM | MDA-N > 10 µM | MCF7 > 10 µM | PC-3 > 10 µM | CAKI-1 > 10 µM | EKVX > 10 µM | MDA-MB-231 > 10 µM | SNB-19 > 10 µM | HL-60 > 10 µM

CC1=C(C)C(=O)OC(C(C)(O)C2(O)CCC3(O)C4CC(Cl)C5(O)C(O)C=CC(=O)C5(C)C4CCC32C)C1 (stereo not drawn)
inactive: Hs-578T 66.4 µM | OVCAR-5 > 100 µM | OVCAR-4 57.4 µM | 786-0 32.3 µM | T47D > 100 µM | RXF 393 18.5 µM | CCRF-CEM 14.1 µM | MDA-MB-435 18.7 µM | OVCAR-8 25.1 µM | HCC 2998 27.1 µM | COLO 205 12.9 µM | MDA-N 20 µM | MCF7 8.85 µM | PC-3 48.1 µM | CAKI-1 12.2 µM | EKVX 53.7 µM | MDA-MB-231 30.2 µM | SNB-19 49.8 µM | HL-60 4.15 µM

COc1cc(/C=C2\CC3C4CC=C5C[C@@H](O)CC[C@]5(C)C4CC[C@]3(C)\C2=N\O)cc(OC)c1OC (stereo partly drawn)
inactive: Hs-578T 4.42 µM | OVCAR-5 10.3 µM | OVCAR-4 3.94 µM | 786-0 4.66 µM | T47D 2.72 µM | RXF 393 3.61 µM | CCRF-CEM 6.44 µM | MDA-MB-435 5.12 µM | OVCAR-8 8.45 µM | HCC 2998 6.34 µM | COLO 205 3.73 µM | MDA-N 6.37 µM | MCF7 3.21 µM | PC-3 4.28 µM | CAKI-1 3.94 µM | EKVX 6.04 µM | MDA-MB-231 7.31 µM | SNB-19 21.3 µM | HL-60 4.61 µM

N#CC12CC=C(c3ccccc3)N=C1NC(c1ccccc1)=CC2 (stereo not drawn)
inactive: Hs-578T > 100 µM | OVCAR-5 > 100 µM | OVCAR-4 29.7 µM | 786-0 > 100 µM | T47D 34.7 µM | RXF 393 > 100 µM | CCRF-CEM 32.2 µM | MDA-MB-435 35.6 µM | OVCAR-8 48.2 µM | HCC 2998 > 100 µM | COLO 205 30.8 µM | MDA-N 37.3 µM | MCF7 50 µM | PC-3 33.9 µM | EKVX 52.2 µM | MDA-MB-231 > 100 µM | SNB-19 90.8 µM | HL-60 22.4 µM
